# Data from patent US4122184A, “Benzimidazole insecticides” (priority 1977, dated 1978).
# Like-named read-outs stand apart in the source and are kept apart here.
# Experiments:
# [1] = test system: German Roach; assay: Field trial (first summer), contact; type: in vivo; conditions: 500 ppm
# [2] = test system: American Roach; assay: Field trial (first summer), contact; type: in vivo; conditions: 500 ppm
# [3] = test system: Tussock Moth; assay: Field trial (first summer), contact; type: in vivo; conditions: 750 ppm
# [4] = test system: Buffalo Tree Hopper; assay: Field trial (first summer), contact; type: in vivo; conditions: 125 ppm
# [5] = test system: Cabbage Looper; assay: Field trial (first summer), stomach; type: in vivo; conditions: 500 ppm
# [6] = test system: Variegated Cutworm; assay: Field trial (first summer), stomach; type: in vivo; conditions: 500 ppm
# [7] = Acute oral toxicity; conditions: in vivo, read-out: Est. LD50
# Description: While the compounds of this invention resemble the organic phosphates in being toxic upon ingestion, they differ from the organic phosphates in having a low toxicity when applied to the skin. The following charts give the estimated acute oral and acute dermal toxicities of 2,6-bis(trifluoromethyl)-4-nitrobenzimidazole in several species of mammals.
# [8] = test system: Asparagus Beetles Larvae; assay: Field trial, contact poison test; type: in vivo
# In short: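 Infested host plants were kept in water-filled bottles with cellucotton around the stem and sprayed with different compound concentrations by atomizer at 10 psi from arm's length. Mortality was read at 24, 48 and 72 h on a 0–9 scale (0 = 0-10%, 9 = 91-100% mortality), averaged per concentration.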
structure (smiles),measurement,setting,value
"O=[N+]([O-])c1cc(C(F)(F)F)cc2nc(C(F)(F)F)[nH]c12 [A, 2,6-bis(trifluoromethyl)-4-nitrobenzimidazole]",insect mortality rating,[1],8
same,insect mortality rating,[2],9 (91-100 percent mortality)
same,insect mortality rating,[3],9 (91-100 percent mortality)
same,insect mortality rating,[4],9 (91-100 percent mortality)
same,insect mortality rating,[5],9 (91-100 percent mortality)
same,insect mortality rating,[6],5
same,LD50,"[7]; guinea pig, male",15 mg/kg
same,LD50,"[7]; mouse, female",27 mg/kg
same,LD50,"[7]; rat, female",19 to 22 mg/kg
same,LD50,"[7]; rat, male",16 to 20 mg/kg
same,average mortality rating,[8]; 10 ppm,8
same,average mortality rating,[8]; 25 ppm,8
same,average mortality rating,[8]; 50 ppm,9 (91-100 percent mortality)
